The results in this text go back to US12611492B2, “Local drug delivery devices and methods for treating cancer” (Massachusetts Institute of Technology, priority 2013, dated 2026).

This data set relates to pancreatic xenografts. The following applies: NOD/SCID/γc, mouse, in vivo, iv. From the text:
To quantify intratumoral drug distribution, serial sections of the tumor perpendicular to the PED were imaged by quantitative confocal microscopy. […] Tissue penetration within the tumor was quantified by line scans starting from the entry site for paclitaxel (PED—tumor/device interface; IV—vessels).

Some results are limits rather than exact numbers.

For `CC(=O)O[C@H]1C(=O)[C@@]2(C)[C@H]([C@H](OC(=O)c3ccccc3)[C@]3(O)C[C@H](OC(=O)[C@H](O)[C@@H](NC(=O)c4ccccc4)c4ccccc4)C(C)=C1C3(C)C)[C@]1(OC(C)=O)CO[C@@H]1C[C@@H]2O` [paclitaxel], the “paclitaxel presence radius around the vessels” value was at most 10 micron.
